Structures can show the parent of a compound that is named as a salt.

In assay [1] the target is T1, human B1R receptor (hB1R) (Homo sapiens, UniProt P46663).
T1 construct: expressed in transfected cells; host or cells: CHO K1 cells
T1 sequence (P46663 1-353): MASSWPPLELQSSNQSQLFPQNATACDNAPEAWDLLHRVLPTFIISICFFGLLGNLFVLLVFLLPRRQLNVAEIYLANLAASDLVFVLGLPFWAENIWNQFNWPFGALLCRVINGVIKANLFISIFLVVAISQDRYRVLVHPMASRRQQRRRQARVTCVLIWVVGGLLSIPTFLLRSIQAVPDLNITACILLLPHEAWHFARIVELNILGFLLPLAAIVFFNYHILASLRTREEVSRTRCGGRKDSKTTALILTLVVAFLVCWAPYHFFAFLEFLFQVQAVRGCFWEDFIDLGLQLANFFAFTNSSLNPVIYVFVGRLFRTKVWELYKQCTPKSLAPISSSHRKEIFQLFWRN
Description: Functional investigation on the bradykinin 1 receptor (B1R), FLIPR Ca2+ assay, hB1R cells. The format is cell-based. The following applies: test substance 10 μM; CHO K1 cells transfected with human B1R gene; Fluo-4 Ca2+ signal; agonist Lys-Des-Arg9-bradykinin at EC80; % of maximum achievable inhibition; read-out: B1R antagonism, human [10 μM] % inhibition. The method, then: (§1) The agonistic or antagonistic action of substances on the bradykinin 1 receptor (B1R) of the human and rat species can be quantified with ectopically expressing cell lines (CHO K1 cells) and with the aid of a Ca^2+-sensitive dyestuff (Fluo-4) in a fluorescent imaging plate reader (FLIPR). The value in % activation is based on the Ca^2+ signal after addition of Lys-Des-[…]-bradykinin (0.5 nM) or Des-[…]-bradykinin (100 nM). Antagonists lead to a suppression of the Ca^2+inflow after addition of the agonist. % inhibition compared with the maximum achievable inhibition is stated. The agonistic or antagonistic action of substances on the bradykinin 1 receptor (B1R) of the human and rat species can be determined with the following assay. In accordance with this assay, the Ca^2+ inflow through the channel is quantified with the aid of a Ca^2+-sensitive dyestuff (type Fluo-4, Molecular Probes Europe BV, Leiden, Holland) in a fluorescent imaging plate reader (FLIPR, Molecular Devices, Sunnyvale, USA). Chinese hamster ovary cells (CHO K1 cells) transfected stably with the human B1R gene (hB1R cells) or the B1R gene of the rat (rB1R cells) are used. For functional studies, these cells are plated out on black 96-well plates with a clear base (BD Biosciences, Heidelberg, Germany or Greiner, Frickenhausen, Germany) in a density of 20,000-35,000 cells/well. The cells are left overnight at 37° C. and 5% CO2 in culture medium (hB1R cells: Nutrient Mixture Ham's F12, Gibco Invitrogen GmbH, Karlsruhe, Germany or DMEM, Sigma-Aldrich, Taufkirchen, Germany; rB1R cells: D-MEM/F12, Gibco Invitrogen GmbH, Karlsruhe, Germany) with 10 vol. % FBS (foetal bovine serum, Gibco Invitrogen GmbH, Karlsruhe, Germany or PAN Biotech GmbH, Aidenbach, Germany). On the following day, the cells are loaded for 60 min at 37° C. with 2.13 μM Fluo-4 (Molecular Probes Europe BV, Leiden Holland) in HBSS buffer (Hank's buffered saline solution, Gibco Invitrogen GmbH, Karlsruhe, Germany) with 2.5 mM probenecid (Sigma-Aldrich, Taufkirchen, Germany) and 10 mM HEPES (Sigma-Aldrich, Taufkirchen, Germany). The plates are then washed 2× with HBSS buffer, and HBSS buffer which additionally contains 0.1% BSA (bovine serum albumin; Sigma-Aldrich, Taufkirchen, Germany), 5.6 mM glucose and 0.05% gelatine (Merck KGaA, Darmstadt, Germany) is added. After a further incubation of 20 minutes at room temperature, the plates are inserted into the FLIPR for the Ca^2+ measurement. Alternatively, the plates are washed with buffer A (15 mM HEPES, 80 mM NaCl, 5 mM KCl, 1.2 mM CaCl2, 0.7 mM MgSO4, 2 g/l glucose, 2.5 mM probenecid), buffer A is added and the plates are loaded with 2.5 μM Fluo-4 and 0.025% Pluronic F127 (Sigma-Aldrich, Taufkirchen, Germany). Thereafter, the cells are washed 2× with buffer A and incubated for 30 minutes at room temperature with buffer A, which additionally contains 0.05% BSA and 0.05% gelatine, and thereafter inserted into the FLIPR for the Ca^2+ measurement. The Ca^2+-dependent fluorescence is measured here before and after addition of substances (λex=488 nm, λem=540 nm). Quantification is by measurement of the highest fluorescence intensity (FC, fluorescence counts) over time. The FLIPR protocol consists of 2 additions of substance. Test substances (10 μM) are first pipetted on to the cells and the Ca^2+ inflow is compared with the control (hB1R: Lys-Des-[…]-bradykinin>=50 nM; rB1R: Des-[…]-bradykinin 10 μM). This gives the result in % activation based on the Ca^2+ signal after addition of Lys-Des-[…]-bradykinin (>=50 nM) or Des-[…]-bradykinin (10 μM). After incubation for 10-20 minutes, Lys-Des-[…]-bradykinin (hB1R) or Des-[…]-bradykinin (rB1R) at the EC80 concentration is applied and the inflow of Ca^2+ is likewise determined. Antagonists lead to a suppression of the Ca^2+ inflow. The percent inhibition compared to the maximum achievable inhibition is calculated. In order to determine the IC50 value, the substances are added in various concentrations. […]

Assay [2] deals with T2, B1R receptor of the rat (rB1R) (Rattus norvegicus, UniProt P97583).
T2 construct: expressed in transfected cells; host or cells: CHO K1 cells
T2 sequence (P97583 1-337): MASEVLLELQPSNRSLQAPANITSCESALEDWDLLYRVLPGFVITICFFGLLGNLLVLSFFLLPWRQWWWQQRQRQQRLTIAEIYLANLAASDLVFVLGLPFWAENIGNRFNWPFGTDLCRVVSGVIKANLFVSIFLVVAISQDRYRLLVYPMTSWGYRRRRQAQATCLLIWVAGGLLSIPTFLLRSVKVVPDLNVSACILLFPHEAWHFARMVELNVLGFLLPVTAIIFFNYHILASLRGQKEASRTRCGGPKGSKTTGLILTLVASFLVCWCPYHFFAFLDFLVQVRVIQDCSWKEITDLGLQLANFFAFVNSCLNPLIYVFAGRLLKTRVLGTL
Description: Functional investigation on the bradykinin 1 receptor (B1R), FLIPR Ca2+ assay, rB1R cells. The format is cell-based. The settings on record: test substance 10 μM; CHO K1 cells transfected with rat B1R gene; Fluo-4 Ca2+ signal; agonist Des-Arg9-bradykinin at EC80; % of maximum achievable inhibition; read-out: B1R antagonism, rat [10 μM] % inhibition. The method, then:
as §1

For orientation: inhibition means the relative decrease from the control value, in per cent. `Cc1cc(C)c(S(=O)(=O)N2CCC(CCS(=O)(=O)N3CCC(CCN4CCCC4)CC3)C2)c(C)c1` (centres unmarked) [Example 1, 1-(2-(1-(Mesitylsulfonyl)pyrrolidin-3-yl)ethylsulfonyl)-4-(2-(pyrrolidin-1-yl)ethyl)piperidine]: the inhibition at 10 µM in assay [1] is 83%. Consider `O=S(=O)(CCC[C@H]1CCCN1S(=O)(=O)c1ccc2ccccc2c1)N1CCN(c2ccncc2)CC1` [Example 2, (R)-1-(3-(1-(Naphthalen-2-ylsulfonyl)pyrrolidin-2-yl)propylsulfonyl)-4-(pyridin-4-yl)piperazine hydrochloride], for which the figures for the inhibition at 10 µM in assay [2] and in assay [1] were 84% and 102%, respectively. Turning to `O=S(=O)(CCC1CCN(S(=O)(=O)c2csc3ccccc23)C1)N1CCC(CCN2CCCC2)CC1` (centres unmarked) [Example 3, 1-(2-(1-(Benzo[b]thiophen-3-ylsulfonyl)pyrrolidin-3-yl)ethylsulfonyl)-4-(2-(pyrrolidin-1-yl)ethyl)piperidine], in assay [1], the inhibition at 10 µM worked out at 55%.

On to `Cc1cc(C)c(S(=O)(=O)N2CC[C@@H]2CCCS(=O)(=O)N2CCC(CCN3CCCC3)CC2)c(C)c1` [Example 4, (S)-1-(3-(1-(Mesitylsulfonyl)azetidin-2-yl)propylsulfonyl)-4-(2-(pyrrolidin-1-yl)ethyl)piperidine hydrochloride], for which the inhibition at 10 µM in assay [2] was found to be 13%; in assay [1] it was 76%. For `CN1CCC(N2CCN(S(=O)(=O)CCCCC3CCCN3S(=O)(=O)c3cccc4ccccc34)CC2)CC1` (centres unmarked) [Example 5, 1-(1-Methylpiperidin-4-yl)-4-(4-(1-(naphthalen-1-ylsulfonyl)pyrrolidin-2-yl)butylsulfonyl)piperazine dihydrochloride], in that order: 56% and 49%. For `Cc1cc(C)c(S(=O)(=O)N2CCCC2CCCCS(=O)(=O)N2CCC(CCN3CCCC3)CC2)c(C)c1` (centres unmarked) [Example 6, 1-(4-(1-(Mesitylsulfonyl)pyrrolidin-2-yl)butylsulfonyl)-4-(2-(pyrrolidin-1-yl)ethyl)piperidine], in that order: 44% and 61%. The matching figures for `COc1cc(C)c(S(=O)(=O)N2CCCC2CCCCS(=O)(=O)N2CCN(C3CCN(C)CC3)CC2)c(C)c1C` (centres unmarked) [Example 7, 1-(4-(1-(4-Methoxy-2,3,6-trimethylphenylsulfonyl)pyrrolidin-2-yl)butylsulfonyl)-4-(1-methylpiperidin-4-yl)piperazine]: 58% and 38%. Regarding `COc1cc(C)c(S(=O)(=O)N2CCCC2CCCCS(=O)(=O)N2CCC(CCN3CCCC3)CC2)c(C)c1C` (centres unmarked) [Example 8, 1-(4-(1-(4-Methoxy-2,3,6-trimethylphenylsulfonyl)pyrrolidin-2-yl)butylsulfonyl)-4-(2-(pyrrolidin-1-yl)ethyl)piperidine], the inhibition at 10 µM in assay [2] amounted to 46%; in assay [1], 59%. For the compound `CN1CCC(N2CCN(S(=O)(=O)CCCCC3CCCN3S(=O)(=O)c3c(Cl)cc(C(F)(F)F)cc3Cl)CC2)CC1` (centres unmarked) [Example 9, 1-(4-(1-(2,6-Dichloro-4-(trifluoromethyl)phenylsulfonyl)pyrrolidin-2-yl)butylsulfonyl)-4-(1-methylpiperidin-4-yl)piperazine], the inhibition at 10 µM amounted to 30% in assay [2] and 58% in assay [1]. The matching figures for `COc1cc(C)c(S(=O)(=O)N2CCCC(CCCS(=O)(=O)N3CCC(CCN4CCCC4)CC3)C2)c(C)c1C` (centres unmarked) [Example 10, 1-(4-Methoxy-2,3,6-trimethylphenylsulfonyl)-3-(3-(4-(2-(pyrrolidin-1-yl)ethyl)piperidin-1-ylsulfonyl)propyl)piperidine hydrochloride]: 10% and 63%. For `Cc1cc(C)c(S(=O)(=O)N2CCCC(CCCS(=O)(=O)N3CCC(CCN4CCCC4)CC3)C2)c(C)c1` (centres unmarked) [Example 11, 1-(Mesitylsulfonyl)-3-(3-(4-(2-(pyrrolidin-1-yl)ethyl)piperidin-1-ylsulfonyl)propyl)piperidine hydrochloride], in that order: 26% and 65%. In the case of `Cc1cc(C)c(S(=O)(=O)N2CCC(CCCS(=O)(=O)N3CCC(CCN4CCCC4)CC3)CC2)c(C)c1` [Example 12, 1-(Mesitylsulfonyl)-4-(3-(4-(2-(pyrrolidin-1-yl)ethyl)piperidin-1-ylsulfonyl)propyl)piperidine], the inhibition at 10 µM in assay [1] was found to be 52%.

In the case of `Cc1cc(C)c(S(=O)(=O)N2CCC(CCCS(=O)(=O)N3CCN(C4CCN(C)CC4)CC3)CC2)c(C)c1` [Example 13, 1-(3-(1-(Mesitylsulfonyl)piperidin-4-yl)propylsulfonyl)-4-(1-methylpiperidin-4-yl)piperazine], the inhibition at 10 µM in assay [1] was 53%. The same measure, in the same setting: to `O=S(=O)(CCC1CCN(S(=O)(=O)c2c(Cl)cc(C(F)(F)F)cc2Cl)CC1)N1CCC(CCN2CCCC2)CC1` [Example 14, 1-(2,6-Dichloro-4-(trifluoromethyl)phenylsulfonyl)-4-(2-(4-(2-(pyrrolidin-1-yl)ethyl)piperidin-1-ylsulfonyl)ethyl)piperidine] belongs 58%.

With `COc1cc(C)c(S(=O)(=O)N2CC(CCS(=O)(=O)N3CCC(CCN4CCCC4)CC3)CO2)c(C)c1C` (centres unmarked) [Example 15], the inhibition at 10 µM in assay [2] was 18%; in assay [1], 97%. `COc1cc(C)c(S(=O)(=O)N2CCC[C@H]2CCCS(=O)(=O)N2CCN(c3nccs3)CC2)c(C)c1C` [Example 40, (S)-2-(4-(3-(1-(4-Methoxy-2,3,6-trimethylphenylsulfonyl)pyrrolidin-2-yl)propylsulfonyl)piperazin-1-yl)thiazole]: the inhibition at 10 µM in assay [1] was found to be 50%.

For the origin of these results see patent publication US8119805B2, “Substituted disulfonamide compounds” (Gruenenthal GmbH, priority 2008, dated 2012).
